Data as given in patent US6407058B1, “Modifying the permeability of physiological barriers” (Eisai Co., Limited, priority 1996, dated 2002).

What was measured:
p100/p120 [1] = assay: [32P]orthophosphate labelling and immunoprecipitation of p100/p120, MDCK I cells; format: cell-based
Protocol: PDB induces dephosphorylation of p100 and p120. We investigated the possibility that the altered pattern of migration during electrophoresis of p100 and p120 following treatment with PDB is due to a change in the phosphorylation state of these proteins. MDCK I cells were metabolically labelled with [^32P]orthophosphate, treated with or without 200 nM PDB, and the p100 and p120 isolated by immunoprecipitation with antibodies recognising p100 and p120. This immunoprecipitation was carried out under buffer conditions which removed any associated proteins from p100 and p120. Protein was separated by electrophoresis, transferred to nitrocellulose filters, and exposed to film (Example 6A). The greater the amount of radioactive phosphate incorporated into the protein, the greater the signal on the film. […] To normalise for slight differences in protein loading, the same filters were then probed with p100/p120 antibody, and the level of p100/p120 protein determined by densitometry. Thus, the amount of phosphate per unit protein could be calculated. […]
MDCK I cells grown to confluence on 24 mm filters were incubated overnight in phosphate-free MEM, containing 0.5% serum (dialysed against 0.9% NaCl and 10 mM Hepes (pH 7.5)) and 100 μCi/ml [^32P]orthophosphate (Amersham). […] Filters were then probed with p120 antibodies, and the resulting ECL exposure scanned in the same way, to quantify protein loading.

p100/p120 [2] = assay: phosphoamino acid (PAA) analysis of p100/p120, MDCK I cells; format: cell-based; details: PDB treatment
Protocol: Following phosphate labelling, immunoprecipitation and visualisation of p100/p120 as in panel A above, the levels of p100/p120 protein were determined by immunoblotting. Thus it could be ascertained that approximately equal amounts of protein from PDB-treated and untreated cells were used for the PAA analysis. The p100/p120 bands were excised, and the proteins hydrolysed into their constituent amino acids by boiling in 5.7 M HCl. PAAs were then separated by two-dimensional electrophoresis, and detected by autoradiography. p100/p120 from control cells contains mainly phosphoserine (S), some phosphothreonine (T) and no detectable phosphotyrosine (Y). Following PDB treatment, both phosphoserine and phosphothreonine levels are reduced.
For phosphoamino acid (PAA) analysis, MDCK I cells were labelled as above with [^32P]orthophosphate, and the p100 and p120 extracted from PDB-treated or untreated cells by immunoprecipitation (as above). Following transfer to Immobilon P, and immunoblotting to assess recovery of protein, the area of the filter containing p100 and p120 was excised. The proteins were hydrolysed at 110° C. for one hour in 5.7 M HCl to release PAAs. Following lyophilisation, two dimensional PAA separation and detection was carried out as previously described (Boyle et al., 1991).

## CCCC(=O)O[C@@H]1[C@@H](C)[C@@]2(O)[C@@H](C=C(CO)C[C@]3(O)C(=O)C(C)=C[C@@H]23)[C@@H]2C(C)(C)[C@]12OC(=O)CCC [PDB, Phorbol-12,13-dibutyrate]
p100/p120 [1]; 200 nM PDB 30 minutes, seven independent sets of experiments
  phosphate content of p100/p120, of that in untreated cells (mean±s.d.): 58±11%
p100/p120 [1]; 200 nM PDB, single experiment (FIG. 7B), normalised for protein
  phosphate in p100/p120 lost: approximately 40%
p100/p120 [2]
  phosphoserine and phosphothreonine levels of p100/p120: reduced
  reduction in phosphate signal (PAA densitometry): approximately 40%
